Results as given in article PMC9718554, “Discovery of a fragment hit compound targeting D-Ala:D-Ala ligase of bacterial peptidoglycan biosynthesis” (Journal of Enzyme Inhibition and Medicinal Chemistry, 2022).
Read-outs that look alike come from different tables or passages of the source.

Molecular target: T1, E. coli DdlB enzyme (D-alanine:D-alanine ligase) (Escherichia coli, UniProt P07862)
T1 construct: made in house; host or cells: E. coli
Experiment: biochemical
Conditions: read-out: DdlB RA; for remaining activity at 2500 µM: tested concentration 2.5 mM; for remaining activity at 2200 µM: tested concentration 2.2 mM; for remaining activity at 1900 µM: tested concentration 1.9 mM; for remaining activity at 2600 µM: tested concentration 2.6 mM; for remaining activity at 2700 µM: tested concentration 2.7 mM; for remaining activity at 2300 µM: tested concentration 2.3 mM; for remaining activity at 2800 µM: tested concentration 2.8 mM; for remaining activity at 1700 µM: tested concentration 1.7 mM; for remaining activity at 2400 µM: tested concentration 2.4 mM; for remaining activity at 3100 µM: tested concentration 3.1 mM; for remaining activity at 3200 µM: tested concentration 3.2 mM; for remaining activity at 3500 µM: tested concentration 3.5 mM; for remaining activity at 2000 µM: tested concentration 2.0 mM; for remaining activity at 3900 µM: tested concentration 3.9 mM
Procedure: The fragment library was assayed in a DdlB inhibition assay, where fragments were tested for their ability to inhibit the D-Ala-adding activity of DdlB ligase. The orthophosphate formed during the enzymatic reaction was measured spectrophotometrically using malachite green reagent.
A recombinant E. coli DdlB enzyme (D-alanine:D-alanine ligase) was expressed in E. coli[11]. […] The final DMSO concentration was 5%. […] All experiments were performed in duplicates. […] IC50 values were determined by measuring the residual activities in quadruplicate at seven different compound concentrations and calculated using in GraphPad Prism (GraphPad Software, San Diego, CA, USA).

[1] = residual activity of DdlB, fragment library screening
[2] = residual activity, tested concentration 1.8 mM

CC(=O)N1CCC(O)C2CCCCC21 (stereo not shown) [Compound 8014-2178]
remaining activity at 2500 µM: 99%

COC(=O)C(O)(c1cc(C)c(N)c(C)c1)C(F)(F)F (stereo not shown) [Compound 8015-4257]
remaining activity at 1800 µM: 94%

Cc1nn(-c2ccccn2)c2c1C(=O)C(C#N)CC2 (stereo not shown) [Compound 8015-7286]
remaining activity at 2200 µM: 83%

O=C(O)CC1(CC(=O)Nc2cccnc2)CCCC1 [Compound 8016-0695]
remaining activity at 1900 µM (fragment library screening): 93%

Cc1cc(O)n(-c2nnn[nH]2)n1 [Compound 8016-1033]
remaining activity at 3000 µM (tested concentration 3.0 mM): 80%

O=C(O)c1nc2ccccc2nc1O [Compound 8016-8257]
remaining activity at 2600 µM: 97%

N#Cc1ccccc1S(N)(=O)=O [Compound 8016-9723]
remaining activity at 2700 µM: 88%

COc1cc(C(=O)NO)cc(OC)c1OC [Compound 8017-0604]
remaining activity at 2200 µM (residual activity): 96%

O=C(O)c1n[nH]cc1Br [Compound 8017-3539]
remaining activity at 2600 µM: 87%

COC(=O)c1nnn(-c2ccccc2)c1O [Compound 8017-3559]
remaining activity at 2300 µM: 104%

C=CCN1C(=O)NOC(N)=C1C#N [Compound 8017-4055]
remaining activity at 2800 µM: 92%

NS(=O)(=O)c1ccc(NC(=O)CCn2cnnn2)cc1 [Compound 8017-4431]
remaining activity at 1700 µM: 99%

O=C(O)c1cccc2c1C(=O)N(Cc1ccncc1)C2 [Compound 8017-6147]
remaining activity at 1900 µM (fragment library screening): 90%

CC1=NN(C(C#N)c2cn(C)nc2C)C(C)(C)C1 (stereo not shown) [Compound 8017-8222]
remaining activity at 2400 µM: 105%

COc1cc(OC)c2cc(C(=O)O)[nH]c2c1 [Compound 8017-9359]
remaining activity at 2300 µM (residual activity): 104%

Oc1cc(-c2cccnc2)n[nH]1 [Compound 8018-0078]
remaining activity at 3100 µM: 91%

N#CCc1nnc(-c2cccc(Cl)c2)[nH]1 [Compound 8018-3009]
remaining activity at 2300 µM (residual activity): 93%

CC(C)(C)OC(=O)n1c(B(O)O)cc2ccccc21 [Compound 8018-6383]
remaining activity at 1900 µM: 75%

Oc1nonc1NCc1ccccc1 [Compound 8018-6481]
remaining activity at 2600 µM: 102%

OB(O)c1ccn[nH]1 [Compound 8018-7072]
remaining activity at 4500 µM (tested concentration 4.5 mM): 87%

Oc1nonc1N1CCOCC1 [Compound 8018-8552]
remaining activity at 2900 µM (tested concentration 2.9 mM): 92%

Oc1nonc1N1CCCC1 [Compound 8018-8553]
remaining activity at 3200 µM: 116%

O=C(O)c1cnn(-c2ccccn2)c1 [Compound 8018-8592]
remaining activity at 2700 µM: 94%

Cc1noc(-c2cccnc2Cl)n1 [Compound 8018-8637]
remaining activity at 2800 µM: 96%

O=S(=O)(O)c1nnc(-c2ccccc2)o1 [Compound 8018-8658]
remaining activity at 2200 µM: 98%

O=C(O)c1cc(CO)on1 [Compound 8018-8667]
remaining activity at 3500 µM: 99%

NS(=O)(=O)c1ccc2c(c1)CCN2 [Compound 8018-8673]
remaining activity at 2500 µM: 80%

Cc1[nH]c(N)c(C#N)c1C [Compound 8018-8696]
remaining activity at 4400 µM (residual activity of DdlB, fragment library screening, tested concentration 4.4 mM): 98%

Nc1ccc2c(c1)[C@@H](O)C[C@@H](C(F)(F)F)O2 [Compound 8018-8746]
remaining activity at 2600 µM: 98%

N#CCc1nnn[nH]1 [Compound 8018-8768]
remaining activity at 5500 µM (residual activity of DdlB, fragment library screening, tested concentration 5.5 mM): 97%

CCc1c(C)nn(-c2nnn[nH]2)c1O [Compound 8019-0165]
remaining activity at 2600 µM: 76%

CC1(C)CC(O)(c2cc(C(=O)O)no2)CCO1 (stereo not shown) [Compound 8019-4352]
remaining activity at 2500 µM: 72%

Cc1nc2ccc(Br)cn2c1C(=O)O [Compound 8019-4469]
remaining activity at 2000 µM (residual activity): 94%

N#Cc1oc2ccccc2c1N [Compound 8019-4478]
remaining activity at 3500 µM [1]: 85%

CC(c1c[nH]c2ccccc12)C(O)C(=O)O (stereo not shown) [Compound 8019-4518]
remaining activity at 2300 µM (residual activity): 100%

COc1nonc1O [Compound 8019-4549]
remaining activity at 4300 µM (tested concentration 4.3 mM): 93%

N#CC1(N2CCOCC2)CCCC1 [Compound 8019-5695]
remaining activity at 2800 µM [1]: 105%

COc1ccccc1Nc1ncccc1C(=O)O [Compound 8019-5848]
remaining activity at 2000 µM (residual activity): 99%

Cc1nc2c(C)cccn2c1C(=O)O [Compound 8019-6472]
remaining activity at 2600 µM: 93%

O=S(=O)(O)c1nc2ccccc2n1Cc1ccccc1 [Compound 8019-7098]
remaining activity at 1700 µM: 102%

O=C(O)c1cc(S(=O)(=O)N2CCCC2)ccc1O [Compound 8019-7119]
remaining activity at 1800 µM [2]: 97%

O=C(O)CCc1cc(=O)[nH]o1 [Compound 8019-7777]
remaining activity at 3200 µM: 91%

O=C(O)Cc1n[nH]c(-c2ccncc2)n1 [Compound 8019-7883]
remaining activity at 2500 µM: 97%

O=C(O)c1ccccc1-c1ncc[nH]1 [Compound 8019-7907]
remaining activity at 2700 µM: 102%

Cc1cc(C)c2ccc(C(=O)O)cc2n1 [Compound 8019-7912]
remaining activity at 2500 µM: 88%

O=C(O)C1CCN(c2nc3cc(Cl)ccc3o2)CC1 [Compound 8019-8559]
remaining activity at 1800 µM (fragment library screening, tested concentration 1.8 mM): 93%

Cn1ccnc1S(=O)(=O)O [Compound 8019-8648]
remaining activity at 3100 µM: 92%

Cn1nnc(-c2ccc(C(=O)O)c(N)c2)n1 [Compound 8019-8673]
remaining activity at 2300 µM (residual activity): 115%

O=C(Cc1n[nH]c(-c2cccnc2)n1)NCC1CCCO1 (stereo not shown) [Compound 8019-9738]
remaining activity at 1700 µM (residual activity): 94%

N#Cc1cccc2[nH]ccc12 [Compound 8019-9980]
remaining activity at 4200 µM: 101%

COc1cccc2c(O)c(C(=O)O)cnc12 [Compound 8019-9999]
remaining activity at 2300 µM (residual activity): 78%

CC(=O)Nc1cc(-n2cnnc2)ccc1C(=O)O [Compound 8020-0076]
remaining activity at 2000 µM (residual activity): 97%

O=C(O)CCCC1C(=O)Nc2ccccc21 (stereo not shown) [Compound 8020-0144]
remaining activity at 2300 µM: 93%

OC12CC3CC(C1)CC(NCc1cccnc1)(C3)C2 [Compound 8020-0633]
remaining activity at 1800 µM (tested concentration 1.8 mM): 92%

Cc1nnc(-c2ccc(C(=O)O)c(N)c2)o1 [Compound 8020-0732]
remaining activity at 2300 µM (residual activity): 114%

O=C(Cc1nc(-c2ccccn2)n[nH]1)NCC1CCCO1 (stereo not shown) [Compound 8020-1329F]
remaining activity at 1700 µM (residual activity): 104%

O=C(O)Cc1nc(-c2cnccn2)n[nH]1 [Compound 8020-1590]
remaining activity at 2400 µM: 102%

O=C(O)c1cccnc1NCc1ccc(F)cc1 [Compound 8020-1800]
remaining activity at 2000 µM (residual activity): 102%

Nc1ccc2ncc(C(=O)O)c(O)c2c1 [Compound 8020-1815]
remaining activity at 2500 µM: 42%

OCc1noc(C2CC2)n1 [Compound 8020-1925]
remaining activity at 3900 µM [1]: 98%

O=C1CC(c2ccccc2)c2snc(C(=O)O)c2N1 (stereo not shown) [Compound 8020-2209]
remaining activity at 1800 µM [2]: 94%

O=C(O)c1cnc(-c2ccc(F)cc2)[nH]c1=O [Compound 8020-2279]
remaining activity at 2100 µM (residual activity, tested concentration 2.1 mM): 94%

COc1cccc(F)c1B(O)O [Compound 8020-2294]
remaining activity at 2900 µM: 97%

Nc1c(C(=O)O)cnc2ccc(F)cc12 [Compound 8020-2302]
remaining activity at 2400 µM: 93%

O=C(O)CCc1cn2cccnc2n1 [Compound 8020-2316]
remaining activity at 2600 µM: 94%

O=C(O)c1[nH]c2ccc(F)cc2c1Br [Compound 8020-2406]
remaining activity at 1900 µM (residual activity): 89%

O=C(O)c1cc(O)no1 [Compound 8020-2787]
remaining activity at 3900 µM: 92%

N#CC1CC(c2cccc(Cl)c2)=NO1 (stereo not shown) [Compound 8020-2797]
remaining activity at 2900 µM (tested concentration 2.9 mM): 107%

COc1cccc(-c2ncc(C(=O)O)c(=O)[nH]2)c1 [Compound 8020-2801]
remaining activity at 2000 µM (residual activity): 92%

CCc1ccc(S(N)(=O)=O)cc1N [Compound 8020-2865]
remaining activity at 2500 µM: 97%

O=C(O)c1ncoc1-c1ccc2c(c1)OCCO2 [Compound 8020-3638]
remaining activity at 2000 µM (residual activity): 62%

O=C(O)c1cnc(-c2cccnc2)[nH]c1=O [Compound 8020-5063]
remaining activity at 2300 µM (residual activity): 94%

O=C1CC(c2cccc(O)c2)c2snc(C(=O)O)c2N1 (stereo not shown) [Compound 8020-5288]
remaining activity at 1700 µM (residual activity): 114%

O=C(O)c1cnc(-c2ccc(F)cc2)nc1 [Compound 8020-5433]
remaining activity at 2300 µM: 81%

Brc1ccc(-c2nc[nH]n2)cc1 [Compound 8020-5438]
remaining activity at 2200 µM (residual activity): 88%

O=C(O)Cc1nc(-c2cncc(Br)c2)n[nH]1 [Compound 8020-5455]
remaining activity at 1800 µM [2]: 94%

OC1CCCc2[nH]nc(-c3ccccc3)c21 (stereo not shown) [Compound 8020-5457]
remaining activity at 2300 µM: 96%

O=C1C=C(O)CO1 [Compound 8020-5738]
remaining activity at 5000 µM (tested concentration 5.0 mM): 98%

Nc1n[nH]c(-c2ccccc2C(=O)O)n1 [Compound 8020-6003]
remaining activity at 2500 µM: 98%
